Data set [1] relates to PDIA1 C53A and C397A. Format: binding. The conditions noted are these: from IC50 values; PDIA1 C53A and C397A 50 μg/mL in MCF-7 lysates 1 mg/mL, CA-Rh 8 μM.
Data set [2] has as its target T1, PDIA1 (Homo sapiens, UniProt P07237). As to the kind of experiment: Insulin turbidity assay. Particulars: for kinact/KI: 0.5 μM PDIA1, 0.16 mM insulin, 1 mM DTT, varying concentrations and pre-incubation times.
Data set [3] has as its target T1, PDIA1. The conditions noted are these: MCF-7 cells, KSC-34 5 μM; ~5 in the DMSO control.
Data set [4] relates to MCF-7 cells. The conditions noted are these: read-out: EC50 MTT cell viability.
Data set [5] concerns the target prostaglandin E synthase 2 (PTGES2) (Homo sapiens, UniProt Q9H7Z7). As to the kind of experiment: Proteome-wide target enrichment, LC/LC-MS/MS spectral counts. The conditions noted are these: MCF-7 cells, KSC-34 5 μM.
In data set [6] the target is T2, purified, recombinant PDIA1 (Homo sapiens, UniProt P07237). As to the kind of experiment: In-gel fluorescence screen: covalent modification of purified recombinant PDIA1. Particulars: compound 5 μM, PDIA1 50 μg/mL, 1 hour, TAMRA in-gel fluorescence. The data set is classed as binding.
T2 sequence (P07237 18-508): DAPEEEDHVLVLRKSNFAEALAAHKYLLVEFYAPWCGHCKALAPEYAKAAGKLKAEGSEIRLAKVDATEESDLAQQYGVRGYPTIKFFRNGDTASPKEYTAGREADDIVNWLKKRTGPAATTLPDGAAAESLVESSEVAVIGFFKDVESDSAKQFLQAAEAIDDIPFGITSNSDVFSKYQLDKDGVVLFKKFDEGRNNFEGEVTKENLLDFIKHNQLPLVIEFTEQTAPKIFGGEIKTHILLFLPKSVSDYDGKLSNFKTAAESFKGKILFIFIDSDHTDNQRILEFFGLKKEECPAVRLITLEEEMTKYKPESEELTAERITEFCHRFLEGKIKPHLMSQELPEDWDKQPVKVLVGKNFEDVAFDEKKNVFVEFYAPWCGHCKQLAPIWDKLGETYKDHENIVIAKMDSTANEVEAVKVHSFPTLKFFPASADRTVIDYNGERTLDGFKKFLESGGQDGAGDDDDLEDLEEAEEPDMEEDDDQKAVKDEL
The subject of data set [7] is MCF-7 cells.
Data set [8] deals with PDIA6 (Homo sapiens, UniProt Q15084). The conditions noted are these: MCF-7 cells, KSC-34 5 μM.
PDIA6, sequence (Q15084 20-440): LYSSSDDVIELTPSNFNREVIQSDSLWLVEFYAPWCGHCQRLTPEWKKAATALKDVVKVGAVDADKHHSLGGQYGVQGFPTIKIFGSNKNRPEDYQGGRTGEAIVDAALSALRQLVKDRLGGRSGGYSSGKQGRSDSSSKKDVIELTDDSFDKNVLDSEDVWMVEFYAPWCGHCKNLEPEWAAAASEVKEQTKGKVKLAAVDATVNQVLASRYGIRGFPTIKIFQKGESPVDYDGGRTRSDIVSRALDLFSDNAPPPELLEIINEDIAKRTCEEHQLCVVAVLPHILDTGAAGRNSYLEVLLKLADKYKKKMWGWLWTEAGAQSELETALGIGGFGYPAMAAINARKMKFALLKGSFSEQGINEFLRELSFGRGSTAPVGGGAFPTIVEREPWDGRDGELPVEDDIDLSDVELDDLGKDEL
Data set [9] deals with A549 cells.
Data set [10] has as its system SKOV-3. Description: qPCR analysis of UPR target genes. The conditions noted are these: SKOV-3 cells. The data set is classed as cell-based. (Quantitative PCR measures a nucleic acid by following its amplification.)
In data set [11] the target is T2, purified, recombinant PDIA1. Description: In-gel fluorescence: recombinant PDIA1 in the background of MCF-7 cell lysates. The data set is classed as binding. The conditions noted are these: PDIA1 50 μg/mL in MCF-7 cell lysates 1 mg/mL.
Data set [12] relates to HEK293^Trex cells stably expressing ^FTALLC. Description: Viability by Cell Titre Glo. Format: cell-based. The conditions noted are these: KSC-34 40 μM, Cell Titre Glo after media conditioning.
Data set [13] addresses T1, PDIA1. Particulars: 5 μM, MCF-7 cells, 3 hours at 37 °C.
For data set [14], the system named is HEK293^Trex cells stably expressing ^FTALLC. As to the kind of experiment: FTALLC secretion by ELISA. The data set is classed as cell-based. Particulars: KSC-34 40 μM, 4 h pretreatment, 2 h conditioning, compared to vehicle.
Data set [15] concerns the target T3, PDIA4 (Homo sapiens, UniProt P13667). The conditions noted are these: PDIA4 50 μg/mL, with or without MCF-7 lysates 1 mg/mL.
In data set [16] the target is PDIA1 C53A (Homo sapiens, UniProt P07237, C53A). Particulars: KSC-34 5 μM, protein 50 μg/mL, 1 hour.
PDIA1 C53A, sequence (P07237 18-508 C53A): as the sequence (P07237 18-508) above, with C36A counted along it
For data set [17], the system named is HEK293^DAX cells. Description: [35S] metabolic labeling, fraction FTALLC secreted. Format: cell-based. The conditions noted are these: KSC-34 40 μM added 1 h prior to labeling and throughout.
Data set [18] concerns the target PDIA3 (Homo sapiens, UniProt P30101). The conditions noted are these: PDIA3 50 μg/mL, with or without MCF-7 lysates 1 mg/mL.
For data set [19], the system named is HEK293^DAX cells stably expressing PDIA1 shRNA. The conditions noted are these: KSC-34 40 μM, ELISA and [35S] metabolic labeling.
In data set [20] the target is endogenous PDIA1 (Homo sapiens, UniProt P07237). As to the kind of experiment: In-gel fluorescence: endogenous PDIA1 in MCF-7 lysates. The data set is classed as binding. Particulars: compound 5 μM, MCF-7 lysates 2 mg/mL.
endogenous PDIA1, sequence (P07237 18-508): as the sequence (P07237 18-508) above
For data set [21], the target named is T3, PDIA4. The conditions noted are these: HEK293^DAX cells, KSC-34 40 μM, 1 h pre-treatment.
The target in data set [22] is T1, PDIA1. Particulars: HEK293^DAX cells, KSC-34 40 μM, 1 h pre-treatment.

T1 sequence (P07237 18-508): as above
T3 sequence (P13667 21-645, species assumed): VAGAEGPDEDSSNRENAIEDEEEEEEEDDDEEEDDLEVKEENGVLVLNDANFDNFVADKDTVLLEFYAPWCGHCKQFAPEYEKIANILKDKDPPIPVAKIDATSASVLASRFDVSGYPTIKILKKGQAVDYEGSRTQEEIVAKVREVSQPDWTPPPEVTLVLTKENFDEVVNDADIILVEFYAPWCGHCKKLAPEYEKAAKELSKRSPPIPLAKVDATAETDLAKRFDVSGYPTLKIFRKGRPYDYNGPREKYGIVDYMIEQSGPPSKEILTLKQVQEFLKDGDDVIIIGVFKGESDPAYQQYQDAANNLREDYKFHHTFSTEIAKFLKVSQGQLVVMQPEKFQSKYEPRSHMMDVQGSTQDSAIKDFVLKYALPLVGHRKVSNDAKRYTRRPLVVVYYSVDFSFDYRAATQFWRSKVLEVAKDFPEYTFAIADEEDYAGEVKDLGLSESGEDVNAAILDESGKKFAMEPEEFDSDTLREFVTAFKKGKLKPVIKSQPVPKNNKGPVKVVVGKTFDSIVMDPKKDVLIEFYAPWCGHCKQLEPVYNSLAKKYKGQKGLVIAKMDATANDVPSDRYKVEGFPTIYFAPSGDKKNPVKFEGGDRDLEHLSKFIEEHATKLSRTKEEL
prostaglandin E synthase 2 (PTGES2), sequence (Q9H7Z7 whole entry): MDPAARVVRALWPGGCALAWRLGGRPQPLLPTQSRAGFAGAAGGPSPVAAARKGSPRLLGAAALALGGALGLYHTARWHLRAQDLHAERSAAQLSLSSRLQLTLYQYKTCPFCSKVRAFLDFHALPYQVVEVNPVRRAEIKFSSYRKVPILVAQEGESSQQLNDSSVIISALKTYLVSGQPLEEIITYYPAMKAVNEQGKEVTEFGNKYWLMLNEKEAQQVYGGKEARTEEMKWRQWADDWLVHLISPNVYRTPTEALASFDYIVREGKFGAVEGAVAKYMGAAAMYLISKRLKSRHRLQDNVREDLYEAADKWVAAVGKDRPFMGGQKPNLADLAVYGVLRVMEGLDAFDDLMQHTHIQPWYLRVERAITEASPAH
PDIA3, sequence (P30101 25-505, species assumed): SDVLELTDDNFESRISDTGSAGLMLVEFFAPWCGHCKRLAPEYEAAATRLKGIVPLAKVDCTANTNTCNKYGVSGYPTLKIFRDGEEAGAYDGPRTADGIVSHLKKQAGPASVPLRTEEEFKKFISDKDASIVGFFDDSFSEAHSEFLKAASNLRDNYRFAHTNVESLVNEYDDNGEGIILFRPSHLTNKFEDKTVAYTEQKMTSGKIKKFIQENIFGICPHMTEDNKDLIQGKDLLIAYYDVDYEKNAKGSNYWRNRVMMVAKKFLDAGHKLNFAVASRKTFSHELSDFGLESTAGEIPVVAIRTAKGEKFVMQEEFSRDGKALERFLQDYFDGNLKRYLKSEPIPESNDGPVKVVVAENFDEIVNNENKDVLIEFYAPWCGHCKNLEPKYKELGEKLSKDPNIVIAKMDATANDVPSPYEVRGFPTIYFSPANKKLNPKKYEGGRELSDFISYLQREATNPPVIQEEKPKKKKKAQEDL

Regarding 16F16 [reference compound], the “selectivity for the a domain over the a′ domain” value in data set [1] came to 2 fold. Moreover, the kinact/KI (as a rule, the maximal inactivation rate divided by the concentration that gives half of it) in data set [2] is 252 M⁻¹ s⁻¹.

Take `C#CCNc1nc(NCCNC(=O)CCl)nc(N(C)CCCCc2ccccc2)n1` [KSC-34]: the “average spectral counts matched to PDIA1” value in data set [3] is recorded as ~ 2000 spectral counts. Moreover, the EC50 (commonly the concentration that produces a half-maximal response) in [4] was 82 µM. For the same compound, the “average spectral counts PTGES2” value in data set [5] is given as ~ 120 spectral counts. In addition, the “covalent modification of PDIA1 relative to RB-11-ca” value in data set [6] was “equal or greater potency compared to RB-11-ca”; in data set [11] it was “equal or greater potency to RB-11-ca”. In data set [7], the “timeframe of IRE1α activation” value was under 6 h. Moreover, in [7] (4–40 μM, 3 hours at 37 °C), the “activation of the PERK and ATF6 arms of the UPR” value is given as “no significant activation”. In addition, the “increase in SEC24D and ERDJ4 mRNA levels” value in data set [7] (>20 μM KSC-34, 3 hours, relative to DMSO) was ~ 2 fold. For the same compound, the “spectral counts PDIA6” value in data set [8] is reported as ~ 20 spectral counts. The “effect on IRE1α-dependent UPR transcripts” value in [9] and in [10] was “no significant effects” in each case. The “reduction in cellular viability” value in data set [12] was found to be 20%. Further, in [13], the “potency of PDIA1 modification in living cells compared to RB-11-ca” value was ~ 8 fold. In addition, in [14], the “reduction of FTALLC levels in conditioned media” value is recorded as 40%. Moreover, the “labeling of PDIA4” value in data set [15] is “absence of fluorescence”. In addition, the “labeling of PDIA1 C53A” value in data set [16] is “absence of fluorescence”. In addition, the “selectivity for the a domain over the a′ domain” value in data set [1] was 30 fold. Also, the kinact/KI in data set [2] worked out at 9660 M⁻¹ s⁻¹. The “potency (kinact/KI) relative to RB-11-ca” value in [2] (insulin turbidity assay) was ~ 3 fold. Moreover, the “reduction of fraction of [35S]-labeled FTALLC secreted” value in [17] is 30%. Moreover, the “labeling of PDIA3” value in data set [18] is listed as “absence of fluorescence”. Besides, the “KSC-34-dependent reduction in FTALLC secretion upon depletion of PDIA1” value in [19] is “attenuated”. Besides, the “covalent modification of endogenous PDIA1 relative to RB-11-ca” value in [20] was “equal or greater potency toward PDIA1 compared to RB-11-ca”. The “interaction of PDIA4 with FTALLC (co-IP)” value in data set [21] is given as “does not influence the interaction between these proteins”. Besides, the “interaction of PDIA1 with FTALLC (co-IP)” value in [22] is “disrupted this interaction”.

These data come from publication PMC5884060 (Biochemistry, 2018).
